Laboratory results as given in US8034924B2, “Process for production of crystal of purine nucleoside compound” (Ajinomoto Co., Inc., priority 2007, dated 2011).

Assay: Storage stability of crystals of 2′,3′-dideoxyinosine (increase of hypoxanthine after storage, HPLC)
Assay type: physicochemical
Settings: crystals stored at 60° C., at RH75% for 7 days; Table 1
Experimental: In order to examine the storage stability, the obtained crystals were stored at 60° C., at RH75% for 7 days.
The concentration of the phosphate on the surface of the crystals and the amount of hypoxanthine were analyzed in the conditions shown in the following Table 2.

Increase of hypoxanthine after storage (%/DDI)	Compound
0.48 %/DDI	OC[C@@H]1CC[C@H](n2cnc3c(O)ncnc32)O1 [Ex. 2, 2′,3′-dideoxyinosine]
0.45 %/DDI	OC[C@@H]1CC[C@H](n2cnc3c(O)ncnc32)O1 [Ex. 1, 2′,3′-dideoxyinosine]
0.20 %/DDI	OC[C@@H]1CC[C@H](n2cnc3c(O)ncnc32)O1 [Ex. 3, 2′,3′-dideoxyinosine]
1.91 %/DDI	OC[C@@H]1CC[C@H](n2cnc3c(O)ncnc32)O1 [Comp. Ex. 2, 2′,3′-dideoxyinosine, reference compound]
0.54 %/DDI	OC[C@@H]1CC[C@H](n2cnc3c(O)ncnc32)O1 [Ex. 4, 2′,3′-dideoxyinosine]

The next lines start with the compound.

Compound	Increase of hypoxanthine after storage (%/DDI)
OC[C@@H]1CC[C@H](n2cnc3c(O)ncnc32)O1 [Comp. Ex. 1, 2′,3′-dideoxyinosine, reference compound]	2.24 %/DDI
OC[C@@H]1CC[C@H](n2cnc3c(O)ncnc32)O1 [Comp. Ex. 4, 2′,3′-dideoxyinosine, reference compound]	2.20 %/DDI
OC[C@@H]1CC[C@H](n2cnc3c(O)ncnc32)O1 [Comp. Ex. 3, 2′,3′-dideoxyinosine, reference compound]	2.21 %/DDI

Same assay, conditions: crystals stored at 60° C., at RH75% for 7 days; Table 3, phosphate removed by suspending in water vs Example 3

Increase of hypoxanthine after storage (%/DDI)	Compound
4.32 %/DDI	OC[C@@H]1CC[C@H](n2cnc3c(O)ncnc32)O1 [Comp. Ex. 5, 2′,3′-dideoxyinosine, reference compound]
0.20 %/DDI	OC[C@@H]1CC[C@H](n2cnc3c(O)ncnc32)O1 [Ex. 3, 2′,3′-dideoxyinosine]

Same assay, conditions: crystals stored at 60° C., at RH75% for 7 days; Table 4, degree of washing changed per sample

Increase of hypoxanthine after storage (%/DDI)	Compound
0.97 %/DDI	OC[C@@H]1CC[C@H](n2cnc3c(O)ncnc32)O1 [Ex. 10, 2′,3′-dideoxyinosine]
1.04 %/DDI	OC[C@@H]1CC[C@H](n2cnc3c(O)ncnc32)O1 [Ex. 13, 2′,3′-dideoxyinosine]
1.26 %/DDI	OC[C@@H]1CC[C@H](n2cnc3c(O)ncnc32)O1 [Ex. 12, 2′,3′-dideoxyinosine]
2.24 %/DDI	OC[C@@H]1CC[C@H](n2cnc3c(O)ncnc32)O1 [Comp. Ex. 7, 2′,3′-dideoxyinosine, reference compound]
1.91 %/DDI	OC[C@@H]1CC[C@H](n2cnc3c(O)ncnc32)O1 [Comp. Ex. 10, 2′,3′-dideoxyinosine, reference compound]
1.38 %/DDI	OC[C@@H]1CC[C@H](n2cnc3c(O)ncnc32)O1 [Ex. 5, 2′,3′-dideoxyinosine]

The remaining lines, values behind:

Compound	Increase of hypoxanthine after storage (%/DDI)
OC[C@@H]1CC[C@H](n2cnc3c(O)ncnc32)O1 [Ex. 7, 2′,3′-dideoxyinosine]	1.19 %/DDI
OC[C@@H]1CC[C@H](n2cnc3c(O)ncnc32)O1 [Ex. 11, 2′,3′-dideoxyinosine]	0.90 %/DDI
OC[C@@H]1CC[C@H](n2cnc3c(O)ncnc32)O1 [Comp. Ex. 6, 2′,3′-dideoxyinosine, reference compound]	2.47 %/DDI
OC[C@@H]1CC[C@H](n2cnc3c(O)ncnc32)O1 [Ex. 9, 2′,3′-dideoxyinosine]	0.70 %/DDI
OC[C@@H]1CC[C@H](n2cnc3c(O)ncnc32)O1 [Comp. Ex. 9, 2′,3′-dideoxyinosine, reference compound]	2.21 %/DDI
OC[C@@H]1CC[C@H](n2cnc3c(O)ncnc32)O1 [Ex. 6, 2′,3′-dideoxyinosine]	1.03 %/DDI
OC[C@@H]1CC[C@H](n2cnc3c(O)ncnc32)O1 [Ex. 8, 2′,3′-dideoxyinosine]	0.90 %/DDI
OC[C@@H]1CC[C@H](n2cnc3c(O)ncnc32)O1 [Comp. Ex. 8, 2′,3′-dideoxyinosine, reference compound]	2.20 %/DDI
